Converted amounts (≈) assume the structure as drawn. Numbered stars: 1 amine (or outer) side, 2 acyl side, 3 side chain; on linkers, the order of the positions; unused ones are H or OH. Square brackets hold non-standard residues; d marks the D form. Peptide text beside a SMILES is read from it. * marks the point of attachment. ξ: configuration not given here. ξGln(3,4-(OH)2) = NC(=O)C(O)C(O)C(N)C(=O)O; isoSer(2S) = O=C([C@@H](O)CN[*:1])[*:2]; Dap = NC[C@H](N)C(=O)O; X2 = C/C=C(/C)C(=O)*
Columns and labels:
[1] = Inhibitory concentration against RNA polymerase from Escherichia coli using cell freei transcription assay; format: functional
[2] = Minimum inhibitory concentration against Moraxella catarrhalis using broth microdilution method; format: functional

SMILES	IC50 [1]	MIC [2]
C=CCOC(=O)C1NC(=O)[C@@H](O)CNC(=O)[C@H]([C@@H](C)O)NC(=O)C(C(O)C(O)C(N)=O)NC(=O)[C@H](C(C)C)NC(=O)[C@H](CO)NC(=O)[C@H](CNC(=O)/C(C)=C\C)NC1=O (stereo partly drawn)	0.4 µg/mL (≈ 0.474 µM)	–
CC(NCc1cc(C(F)(F)F)cc(C(F)(F)F)c1)C(=O)NC[C@@H]1NC(=O)C(C(=O)O)NC(=O)[C@@H](O)CNC(=O)[C@H]([C@@H](C)O)NC(=O)C(C(O)C(O)C(N)=O)NC(=O)[C@H](C(C)C)NC(=O)[C@H](CO)NC1=O (stereo partly drawn)	0.24 µg/mL (≈ 0.236 µM)	512 µg/mL (≈ 503 µM)
C/C=C(/C)C(=O)NC[C@@H]1NC(=O)CNC(=O)[C@@H](O)CNC(=O)[C@H]([C@@H](C)O)NC(=O)C(C(O)C(O)C(N)=O)NC(=O)[C@H](C(C)C)NC(=O)[C@H](CO)NC1=O (stereo partly drawn) (cyclo([Dap](X2)SV[ξGln(3,4-(OH)2)]T[isoSer(2S)]G))	0.65 µg/mL (≈ 0.856 µM)	16 µg/mL (≈ 21.1 µM)
C/C=C(/C)C(=O)NC[C@@H]1NC(=O)C(C(=O)NCc2ccccc2)NC(=O)[C@@H](O)CNC(=O)[C@H]([C@@H](C)O)NC(=O)C(C(O)C(O)C(N)=O)NC(=O)[C@H](C(C)C)NC(=O)[C@H](CO)NC1=O (stereo partly drawn)	0.3 µg/mL (≈ 0.336 µM)	128 µg/mL (≈ 143 µM)
CC(=O)C(=O)NC[C@@H]1NC(=O)C(C(=O)O)NC(=O)[C@@H](O)CNC(=O)[C@H]([C@@H](C)O)NC(=O)C(C(O)C(O)C(N)=O)NC(=O)[C@H](C(C)C)NC(=O)[C@H](CO)NC1=O (stereo partly drawn)	0.07 µg/mL (≈ 0.0884 µM)	8 µg/mL (≈ 10.1 µM)
CCCCCCCCc1ccc(C(=O)NC(C)C(=O)NC[C@@H]2NC(=O)C(C(=O)O)NC(=O)[C@@H](O)CNC(=O)[C@H]([C@@H](C)O)NC(=O)C(C(O)C(O)C(N)=O)NC(=O)[C@H](C(C)C)NC(=O)[C@H](CO)NC2=O)cc1 (stereo partly drawn)	0.07 µg/mL (≈ 0.0694 µM)	> 512 µg/mL
C/C=C(/C)C(=O)NC[C@@H]1NC(=O)C(C(=O)OC)NC(=O)[C@@H](O)CNC(=O)[C@H]([C@@H](C)O)NC(=O)C(C(O)C(O)C(N)=O)NC(=O)[C@H](C(C)C)NC(=O)[C@H](CO)NC1=O (stereo partly drawn)	0.15 µg/mL (≈ 0.183 µM)	8 µg/mL (≈ 9.78 µM)
C/C=C(/C)C(=O)NC[C@@H]1NC(=O)C(C(=O)N[C@@H](C)C(=O)N[C@@H](C)C(=O)OC)NC(=O)[C@@H](O)CNC(=O)[C@H]([C@@H](C)O)NC(=O)C(C(O)C(O)C(N)=O)NC(=O)[C@H](C(C)C)NC(=O)[C@H](CO)NC1=O (stereo partly drawn)	> 3.2 µg/mL	64 µg/mL (≈ 66.7 µM)
CC(NCc1cc(F)c(F)c(F)c1)C(=O)NC[C@@H]1NC(=O)C(C(=O)O)NC(=O)[C@@H](O)CNC(=O)[C@H]([C@@H](C)O)NC(=O)C(C(O)C(O)C(N)=O)NC(=O)[C@H](C(C)C)NC(=O)[C@H](CO)NC1=O (stereo partly drawn)	0.06 µg/mL (≈ 0.064 µM)	64 µg/mL (≈ 68.3 µM)
C/C=C(/C)C(=O)NC[C@@H]1NC(=O)C(C(=O)NC(Cc2ccc(O)cc2)C(=O)O)NC(=O)[C@@H](O)CNC(=O)[C@H]([C@@H](C)O)NC(=O)C(C(O)C(O)C(N)=O)NC(=O)[C@H](C(C)C)NC(=O)[C@H](CO)NC1=O (stereo partly drawn)	–	512 µg/mL (≈ 529 µM)
C/C=C(/C)C(=O)NC[C@@H]1NC(=O)C(C(=O)OC)NC(=O)[C@@H](O)CNC(=O)[C@H]([C@@H](C)O)NC(=O)C(C(O)C(O)CNC(=O)/C=C/c2ccccc2)NC(=O)[C@H](C(C)C)NC(=O)[C@H](CO)NC1=O (stereo partly drawn)	> 3.2 µg/mL	> 512 µg/mL
CC(O)C(=O)NC[C@@H]1NC(=O)C(C(=O)O)NC(=O)[C@@H](O)CNC(=O)[C@H]([C@@H](C)O)NC(=O)C(C(O)C(O)C(N)=O)NC(=O)[C@H](C(C)C)NC(=O)[C@H](CO)NC1=O (stereo partly drawn)	0.11 µg/mL (≈ 0.139 µM)	64 µg/mL (≈ 80.6 µM)
CCCCCCCCCCCCCCCCCC(=O)NC(C)C(=O)NC[C@@H]1NC(=O)[C@@H](C(=O)O)NC(=O)[C@@H](O)CNC(=O)[C@H]([C@@H](C)O)NC(=O)C(C(O)C(O)C(N)=O)NC(=O)[C@H](C(C)C)NC(=O)[C@H](CO)NC1=O (stereo partly drawn)	0.57 µg/mL (≈ 0.538 µM)	> 512 µg/mL
C/C=C(/C)C(=O)NC[C@@H]1NC(=O)C(C(=O)OC)NC(=O)[C@@H](O)CNC(=O)[C@H]([C@@H](C)O)NC(=O)C(C(O)C(O)CN)NC(=O)[C@H](C(C)C)NC(=O)[C@H](CO)NC1=O (stereo partly drawn)	3.14 µg/mL (≈ 3.91 µM)	32 µg/mL (≈ 39.8 µM)
C/C=C(/C)C(=O)NC[C@@H]1NC(=O)C(C(=O)OC)NC(=O)[C@@H](O)CNC(=O)[C@H]([C@@H](C)O)NC(=O)C(C(O)C(O)CNC(=O)Cc2ccc(-c3ccccc3)cc2)NC(=O)[C@H](C(C)C)NC(=O)[C@H](CO)NC1=O (stereo partly drawn)	> 3.2 µg/mL	> 512 µg/mL

From ChEMBL document CHEMBL1140277, “Antibiotics GE23077, novel inhibitors of bacterial RNA polymerase. Part 3: Chemical derivatization” (Bioorg Med Chem Lett, 2005)
